{"source": "patent US10047067B2", "about": "“Composition for treating kidney disease comprising pyrazole derivative” (Ewha University-Industry Collaboration Foundation, priority 2012, dated 2018)", "test_system": "collagen Iα1 expression in proximal tubular cells (mProx24)", "experiment": "Inhibitory effect on collagen Iα1 expression in proximal tubular cells (hTGF-β1 stimulated, real-time PCR)", "type": "cell-based", "details": "for mrna remaining at 0.01 µM / mrna remaining at 0.1 µM / mrna remaining at 1 µM / mrna remaining at 10 µM / inhibition at 0.01 µM / inhibition at 0.1 µM / inhibition at 1 µM / inhibition at 10 µM / IC50: Mus musculus; for mrna remaining at 0.01 µM / mrna remaining at 0.1 µM / mrna remaining at 1 µM / mrna remaining at 10 µM: Col1, mProx24, 5 ng/ml hTGF-β1 6 hrs, relative to hTGF-β1 alone = 1, read-out: Mean expression level ratio of collagen Iα1 (Col1α) to 18S rRNA; for mrna remaining at 0.01 µM / inhibition at 0.01 µM: 0.01 μM compound; for mrna remaining at 0.1 µM / inhibition at 0.1 µM: 0.1 μM compound; for mrna remaining at 1 µM / inhibition at 1 µM: 1 μM compound; for mrna remaining at 10 µM / inhibition at 10 µM: 10 μM compound; for inhibition at 0.01 µM / inhibition at 0.1 µM / inhibition at 1 µM / inhibition at 10 µM: mProx24, 100% = control without hTGF-β1, 0% = hTGF-β1 alone, read-out: expression inhibition rate (collagen Iα1); for IC50: mProx24, hTGF-β1 stimulated, read-out: IC50 (inhibition of collagen Iα1 expression)", "protocol": "mProx24, which is a name of the proximal tubular cells derived from proximal tubule segments obtained by finely sectioning the kidney of adult C57BL6/J mice, was granted from Professor Sugaya, St. Marianna University School of Medicine, Kanagawa, Japan. mProx24 was cultured in DMEM (Dulbecco's modified Eagle's medium) supplemented with 10% fetal calf serum (FCS, Gibco), 100 U/ml penicillin, 100 μg/ml streptomycin, and 44 mM NaHCO3 at 37° C. in a 5% CO2 atmosphere. For quantitation of RNA expression, the cells were cultured in 6-well plates. When the cells grew 90% confluent, the medium was changed with a fresh 0.15% FCS (Gibco)-supplemented DMEM. Incubation in this medium for 24 hrs halted the cell growth to synchronize the growth cycle in the cells. Compounds of Examples 1 to 9 and Comparative Example were respectively dissolved in DMSO (dimethylsulfoxide) to form a concentration of 50 mM, and subjected to serial dilution to 10 mM, 1 mM, 0.1 mM, and 0.01 mM. 10 mM, 1 mM, 0.1 mM, and 0.01 mM solutions of each of the compounds of Examples 1 to 9 and Comparative Example were 1,000-fold diluted in 0.15% FCS (Gibco)-supplemented DMEM to form final concentrations of 10 μM, 1 μM, 0.1 μM, and 0.01 μM, respectively. In addition, 0 μM (DMSO 1 μL) was used. The cells were incubated for 1 hr in the dilutions and then for 6 hrs in the presence of 5 ng/ml recombinant human transforming growth factor-β1 (hTGF-β1, R&D Systems). For the control, hTGF-β1 was not used. Total RNA was extracted from mProx24 using Trizol (Invitrogen). For quantitation of mRNA expression, a reaction volume of 20 μL including cDNA transcripts, primer pairs, and SYBR Green PCR Master Mix (Applied Biosystems) was subjected to real-time PCR with the aid of StepOnePlus (Applied Biosystems) (real-time PCR condition: 95° C., 10 min→40 thermal cycles of denaturation at 95° C. for 15 sec and primer annealing at 60° C. for 1 min→95° C. for 15 sec, 60° C. for 1 min, and 95° C. for 15 sec to measure a melting curve). Quantitation was normalized to 18S rRNA expression level. A pair of primers for mouse collagen Iα1 were 5′-[…]-3′(SEQ ID NO: 13) and 5′-[…]-3′ (SEQ ID NO: 14). Forward and reverse primers for mouse r18S rRNA were 5′-CGAAAGCATTTGCCAAGAAT-3′ (SEQ ID NO: 11) and 5′-AGTCGGCATCGTTTATGGTC-3′ (SEQ ID NO: 12), respectively.\nExperiment results are given in Tables 3 to 12 and FIGS. 4 to 13. Tables 3 to 12 and FIGS. 4 to 13 show inhibitory effects of the compounds of Examples 1 to 9 and Comparative Example 1 on collagen Iα1 expression in proximal tubular cells.\nData of Tables 3 to 12 and FIGS. 4 to 13 are measurements of experiments repeated three to five times for each concentration, and are expressed as mean±standard error (SE). Statistic comparison among the groups was analyzed by ANOVA and Fisher's least significant difference test, with significance at p<0.05. *P<0.05 vs. WT, †P<0.05 vs. DM.\nIn Tables 3 to 12, mean values of expression level ratios of collagen Iα1 (Col1α) to 18S rRNA (18S), and % inhibition against collagen Iα1 expression for each group are shown, together with IC50 value (μM). In this regard, % inhibition means relative inhibition to 100% for the control and 0% for the group that was treated with hTGF-β1 but not with any of the compounds of Examples or Comparative Example.", "data": [{"molecule": "COc1cccc(-c2cc(O)n(-c3ccccn3)n2)c1", "note": "[Compound 18-001, 3-(3-Methoxyphenyl)-1-(Pyridin-2-yl)-1H-Pyrazol-5-ol]", "values": [{"measurement": "mrna remaining at 0.01 µM", "value": 74.8, "unit": "%"}, {"measurement": "mrna remaining at 0.1 µM", "value": 69.8, "unit": "%"}, {"measurement": "mrna remaining at 1 µM", "value": 64.2, "unit": "%"}, {"measurement": "mrna remaining at 10 µM", "value": 34.5, "unit": "%"}, {"measurement": "inhibition at 0.01 µM", "value": 31, "unit": "%"}, {"measurement": "inhibition at 0.1 µM", "value": 37.1, "unit": "%"}, {"measurement": "inhibition at 1 µM", "value": 44, "unit": "%"}, {"measurement": "inhibition at 10 µM", "value": 80.5, "unit": "%"}, {"measurement": "IC50", "value": 3190, "unit": "nM"}]}, {"molecule": "Oc1cc(COc2ccc3ccccc3c2)nn1-c1ccccn1", "note": "[Compound 18-095, 3-((naphthalen-3-yloxy)methyl)-1-(pyridin-2-yl)-1H-pyrazol-5-ol]", "values": [{"measurement": "mrna remaining at 0.01 µM", "value": 69.9, "unit": "%"}, {"measurement": "mrna remaining at 0.1 µM", "value": 66.3, "unit": "%"}, {"measurement": "mrna remaining at 1 µM", "value": 50.4, "unit": "%"}, {"measurement": "mrna remaining at 10 µM", "value": 26.8, "unit": "%"}, {"measurement": "inhibition at 0.01 µM", "value": 37.2, "unit": "%"}, {"measurement": "inhibition at 0.1 µM", "value": 41.7, "unit": "%"}, {"measurement": "inhibition at 1 µM", "value": 61.4, "unit": "%"}, {"measurement": "inhibition at 10 µM", "value": 90.6, "unit": "%"}, {"measurement": "IC50", "value": 227, "unit": "nM"}]}, {"molecule": "Oc1cc(-c2ccc(-c3ccccc3)cc2)nn1-c1ncccn1", "note": "[Compound 18-186, 3-(biphenyl-4-yl)-1-(pyrimidin-2-yl)-1H-pyrazol-5-ol]", "values": [{"measurement": "mrna remaining at 0.01 µM", "value": 82.5, "unit": "%"}, {"measurement": "mrna remaining at 0.1 µM", "value": 56.9, "unit": "%"}, {"measurement": "mrna remaining at 1 µM", "value": 58.6, "unit": "%"}, {"measurement": "mrna remaining at 10 µM", "value": 58.3, "unit": "%"}, {"measurement": "inhibition at 0.01 µM", "value": 22.5, "unit": "%"}, {"measurement": "inhibition at 0.1 µM", "value": 55.4, "unit": "%"}, {"measurement": "inhibition at 1 µM", "value": 53.2, "unit": "%"}, {"measurement": "inhibition at 10 µM", "value": 53.6, "unit": "%"}, {"measurement": "IC50", "value": 78, "unit": "nM"}]}, {"molecule": "Oc1cc(-c2ccccc2-c2ccc3c(c2)OCO3)nn1-c1ccccn1", "note": "[Compound 18-177, 3-(2-(benzo[d][1,3]dioxol-5-yl)phenyl)-1-(pyridin-2-yl)-1H-pyrazol-5-ol]", "values": [{"measurement": "mrna remaining at 0.01 µM", "value": 96, "unit": "%"}, {"measurement": "mrna remaining at 0.1 µM", "value": 83.9, "unit": "%"}, {"measurement": "mrna remaining at 1 µM", "value": 74.2, "unit": "%"}, {"measurement": "mrna remaining at 10 µM", "value": 43.8, "unit": "%"}, {"measurement": "inhibition at 0.01 µM", "value": 5.46, "unit": "%"}, {"measurement": "inhibition at 0.1 µM", "value": 22, "unit": "%"}, {"measurement": "inhibition at 1 µM", "value": 35.2, "unit": "%"}, {"measurement": "inhibition at 10 µM", "value": 76.7, "unit": "%"}, {"measurement": "IC50", "value": 1310, "unit": "nM"}]}, {"molecule": "c1ccc(COc2c(Cc3ccccc3)c(-c3ccccc3)nn2-c2ccccn2)cc1", "note": "[Compound 18-233, 3-Phenyl-4-Benzyl-5-Benzyloxy-1-(2-Pyridinyl)Pyrazole, reference compound]", "values": [{"measurement": "mrna remaining at 0.01 µM", "value": 93.3, "unit": "%"}, {"measurement": "mrna remaining at 0.1 µM", "value": 75.7, "unit": "%"}, {"measurement": "mrna remaining at 1 µM", "value": 71.2, "unit": "%"}, {"measurement": "mrna remaining at 10 µM", "value": 65.6, "unit": "%"}, {"measurement": "inhibition at 0.01 µM", "value": 8.23, "unit": "%"}, {"measurement": "inhibition at 0.1 µM", "value": 29.9, "unit": "%"}, {"measurement": "inhibition at 1 µM", "value": 35.4, "unit": "%"}, {"measurement": "inhibition at 10 µM", "value": 42.3, "unit": "%"}, {"measurement": "IC50", "value": 10200, "unit": "nM"}, {"measurement": "expression of the extracellular matrix, collagen Iα1 (Col1α), in proximal tubular cells", "setting": "result in words", "value": "decreased the expression level"}]}, {"molecule": "Oc1cc(-c2cccc(I)c2)nn1-c1ccccn1", "note": "[Compound 18-082, 3-(3-iodophenyl)-1-(pyridin-2-yl)-1H-pyrazol-5-ol]", "values": [{"measurement": "mrna remaining at 0.01 µM", "value": 71, "unit": "%"}, {"measurement": "mrna remaining at 0.1 µM", "value": 60.5, "unit": "%"}, {"measurement": "mrna remaining at 1 µM", "value": 39.1, "unit": "%"}, {"measurement": "mrna remaining at 10 µM", "value": 31.2, "unit": "%"}, {"measurement": "inhibition at 0.01 µM", "value": 39.5, "unit": "%"}, {"measurement": "inhibition at 0.1 µM", "value": 53.8, "unit": "%"}, {"measurement": "inhibition at 1 µM", "value": 83, "unit": "%"}, {"measurement": "inhibition at 10 µM", "value": 93.7, "unit": "%"}, {"measurement": "IC50", "value": 105, "unit": "nM"}]}, {"molecule": "Oc1cc(-c2ccc(Br)cc2)nn1-c1ccccn1", "note": "[Compound 18-066, 3-(4-bromophenyl)-1-(pyridin-2-yl)-1H-pyrazol-5-ol]", "values": [{"measurement": "mrna remaining at 0.01 µM", "value": 78.5, "unit": "%"}, {"measurement": "mrna remaining at 0.1 µM", "value": 71.7, "unit": "%"}, {"measurement": "mrna remaining at 1 µM", "value": 72.6, "unit": "%"}, {"measurement": "mrna remaining at 10 µM", "value": 58.3, "unit": "%"}, {"measurement": "inhibition at 0.01 µM", "value": 30.2, "unit": "%"}, {"measurement": "inhibition at 0.1 µM", "value": 39.8, "unit": "%"}, {"measurement": "inhibition at 1 µM", "value": 38.5, "unit": "%"}, {"measurement": "inhibition at 10 µM", "value": 58.6, "unit": "%"}, {"measurement": "IC50", "value": 2140, "unit": "nM"}]}, {"molecule": "CC(=O)Oc1cc(-c2ccc(Br)cc2)nn1-c1ccccn1", "note": "[Compound 18-067, 3-(4-bromophenyl)-1-(pyridin-2-yl)-1H-pyrazol-5-yl acetate]", "values": [{"measurement": "mrna remaining at 0.01 µM", "value": 70, "unit": "%"}, {"measurement": "mrna remaining at 0.1 µM", "value": 60.7, "unit": "%"}, {"measurement": "mrna remaining at 1 µM", "value": 56.2, "unit": "%"}, {"measurement": "mrna remaining at 10 µM", "value": 32.5, "unit": "%"}, {"measurement": "inhibition at 0.01 µM", "value": 35.6, "unit": "%"}, {"measurement": "inhibition at 0.1 µM", "value": 46.6, "unit": "%"}, {"measurement": "inhibition at 1 µM", "value": 52, "unit": "%"}, {"measurement": "inhibition at 10 µM", "value": 80.1, "unit": "%"}, {"measurement": "IC50", "value": 299, "unit": "nM"}]}, {"molecule": "CCCc1c(/C=C/c2ccc(O)c(OC)c2)nn(-c2ccccn2)c1O", "note": "[Compound 18-273, 3-{2-(4-hydroxy-3-methoxyphenyl)vinyl}-4-propyl-1-(2-pyridinyl)pyrazol-5-ol]", "values": [{"measurement": "mrna remaining at 0.01 µM", "value": 40.8, "unit": "%"}, {"measurement": "mrna remaining at 0.1 µM", "value": 83.5, "unit": "%"}, {"measurement": "mrna remaining at 1 µM", "value": 83.2, "unit": "%"}, {"measurement": "mrna remaining at 10 µM", "value": 46, "unit": "%"}, {"measurement": "inhibition at 0.01 µM", "value": 82.6, "unit": "%"}, {"measurement": "inhibition at 0.1 µM", "value": 23, "unit": "%"}, {"measurement": "inhibition at 1 µM", "value": 23.4, "unit": "%"}, {"measurement": "inhibition at 10 µM", "value": 75.3, "unit": "%"}, {"measurement": "IC50", "value": 1780, "unit": "nM"}]}]}
